This is an account of results in patent US8697742B2, “BCRP/ABCG2 inhibitor” (Kabushiki Kaisha Yakult Honsha, priority 2005, dated 2014).

In one experiment the test system is HCT116 cells. As to the kind of experiment: In vivo tumour growth, HCT116 tumour in nude mice. Set-up: species or system human. To be noted: solvent + CPT-11 10 mg/kg/day i.v. for seven days (no compound); day 21; parental HCT116. An excerpt:
(§1) A solvent was solely administered to a control group. On the day 21 from the start of administration, a tumor was extirpated from each mice and weighed, and the tumor growth inhibition ratio IR (%) was derived from the following equation: Tumor growth inhibition ratio IR(%)=(1−average tumor weight of each administration group/average tumor weight of control group)×100.

In the next experiment the test system is A549/SN-38-4 cells. The experiment is described as follows: Effect of overcoming SN-38 resistance of BCRP-expressing A549/SN-38-4 cells. As to conditions: concentration for 50% reduction of relative SN-38 resistance value (IC50 A549/SN-38-4 / IC50 A549), 48 hours culture with SN-38; for EC50: Homo sapiens, A549, 48 h, read-out: Effect of overcoming resistance EC50; for Effect of overcoming resistance EC50: hydrochloride. The experiment is classed as cell-based, human. In outline:
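A549/SN-38-4 cells and parental A549 cells were seeded at 2×10^3 per well in Ham's F-12 with 10% FBS and precultured overnight at 37 °C. Viable cells were counted colorimetrically with TetraColor ONE after drug culture. A relative resistance value was derived.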

The next experiment has as its system P388/BCRP cells. The experiment is described as follows: Effect of overcoming SN-38 resistance of human BCRP gene-transduced P388 cells. The experiment is classed as cell-based, mouse. As to conditions: with SN-38, 48 hours, FIG. 1. The method, then: (§2) Mouse leukemia P388 cells or human BCRP gene-transduced P388 cells (P388/BCRP cells) (see JP-A-2003-063989) were suspended in 10% FBS/RPMI1640 containing 2-mercaptethanol (50 μM), and the resultant suspension was added to a 96-well microplate (1×10^4 cells/50 μL/well). Thereafter, a solution of each of Compounds 1, 14, 21, 31, 39, and 41 of the present invention and SN-38 in 100 FBS/RPNI1640 (25 μL) was added to each of the wells, followed by culturing at 5% CO2 and 37° C. for 48 hours. After completion of culturing, the number of viable cells was counted by use of TetraColor ONE according to the manufacture's instruction manual.

The subject of a further experiment is P388 cells. As to the kind of experiment: Sensitivity of parental P388 cells to SN-38. To be noted: with SN-38, 48 hours, FIG. 1. Format: cell-based, mouse. The method, then: as §2
The subject of a further experiment is K562/MDR cells. The experiment is described as follows: Effect on paclitaxel (multidrug) resistance of human MDR1 gene-transduced K562 cells. The experiment is classed as cell-based. As to conditions: Homo sapiens, read-out: Effect of overcoming resistance EC50. From the text:
After completion of culturing, the number of viable cells was counted by use of TetraColor ONE according to the manufacture's instruction manual.

For a further experiment, the system named is K562/BCRP cells. The experiment is described as follows: Intracellular accumulation of SN-38 in BCRP-expressing cells. As to conditions: compound 500 ng/mL, 37° C. for 30 minutes, FIG. 2. Format: cell-based, human. How it is done:
(§3) K562 cells or human BCRP gene-transduced K562 cells (K562/BCRP cells) (see JP-A-2003-063989) were suspended in 10% FBS/RPMI1640 (1 mL) (5×10^6 cells/mL), and SN-38 and each of Compounds 1, 39, and 46 of the present invention (final concentration: 500 ng/mL) were added to the resultant suspension, followed by incubation at 37° C. for 30 minutes. Thereafter, centrifugation was performed (2° C., 1,400×g, 1 min), and the resultant supernatant was removed. Ice-cooled PBS containing 1% BSA was added to the thus-pelletized cells, and the cells were resuspended, followed by centrifugation (2° C., 1,400×g, 1 min) for washing the cells. This washing procedure was performed again, followed by addition of PBS (250 μL) and sonication of the cells. To the resultant cell sonicate, methanol (250 μL) and 10% zinc sulfate solution (10 μL) were added, and the resultant mixture was stirred, followed by centrifugation (2° C., 12, 500×g, 5 min) and collection of the supernatant. The thus-collected supernatant was dispensed in a white 96-well microplate for fluorescence intensity measurement (200 μL/well), and then the amount of SN-38 contained in the supernatant was measured by use of a microplate fluorometer [SPECTRA max GEMINI XS (trademark), product of Molecular Devices] […]

A further experiment relates to K562 cells. As to the kind of experiment: Intracellular accumulation of SN-38 in parental K562 cells. Format: cell-based, human. To be noted: compound 500 ng/mL, 37° C. for 30 minutes, FIG. 2. How it is done:
as §3

For the next experiment, the system named is HCT116/BCRP cells. As to the kind of experiment: Effect of overcoming anticancer agent resistance in vivo, HCT116/BCRP tumour in nude mice. More on the design: species or system human. To be noted: day 21; for Tumor weight Mean ± S.D.: BALB/c nude mice; for Tumor growth inhibition ratio IR: vs control group.
Description: as §1

[1] abbreviates: concentration for 50% reduction of relative paclitaxel resistance value, K562/MDR vs K562, 72 hours.
Where [2] appears, read: compound 12.5 mg/kg/day + CPT-11 10 mg/kg/day i.v. once a day for seven days.
Where [3] appears, read: compound 25 mg/kg/day + CPT-11 10 mg/kg/day i.v. once a day for seven days.
Setting [4] is: compound 6.3 mg/kg/day + CPT-11 10 mg/kg/day i.v. once a day for seven days.

The term EC50 denotes the midpoint of the concentration-response curve.

SMILES strings stand for the structures. Values after ≈ are worked out from the molar mass of the structure shown. Counter-ions that a name gives are not always drawn. Like-named read-outs stand apart in the source and are kept apart here.

Take `CCc1c2c(nc3ccc(OC(=O)N4CCC(N5CCCCC5)CC4)cc13)-c1cc3c(c(=O)n1C2)COC(=O)[C@]3(O)CC` [CPT-11, irinotecan hydrochloride]: the “Tumor weight Mean ± S.D.” value in the experiment with HCT116 cells is 0.37 ± 0.08 g.

For `COc1ccc(/C(C#N)=C/c2ccc([N+](=O)[O-])s2)cc1OC` [Compound 1, (Z)-2-(3,4-dimethoxy-phenyl)-3-(5-nitro-thiophen-2-yl)-acrylonitrile], the EC50 was 0.006 µg/mL (≈ 0.019 µM) in the experiment on A549/SN-38-4 cells and > 5 µg/mL with K562/MDR cells (setting [1]). In the experiment on P388/BCRP cells, the “Effect of overcoming the SN-38 resistance of the P388/BCRP cells” value (from here on “Effect … of the P388/BCRP cells”) was “potent effect of overcoming the SN-38 resistance”. Moreover, in the experiment on P388 cells, the “Effect on sensitivity of the P388 cells to SN-38” value (“Effect on sensitivity” below) is recorded as “did not affect the sensitivity”. Also, in the experiment on K562/BCRP cells, the “Amount of accumulation of SN-38 in the K562/BCRP cells” value is listed as “increased the amount of accumulation of SN-38”. In addition, in the experiment with K562 cells, the “Amount of accumulation of SN-38 in the K562 cells (parental cells)” value is given as “virtually unaffected”.

As for `COc1ccc(/C(C#N)=C/c2ccc(N3CCN(CCO)CC3)s2)cc1OC` [Compound 14, (Z)-2-(3,4-dimethoxy-phenyl)-3-{5-[4-(2-hydroxy-ethyl)-piperazin-1-yl]-thiophen-2-yl}-acrylonitrile hydrochloride], in the experiment on A549/SN-38-4 cells, the “Effect of overcoming resistance EC50” value stood at 0.087 µg/mL. For the same molecule, the EC50 with K562/MDR cells (K562, 72 h) was > 5 µg/mL. For the same molecule, in the experiment with HCT116/BCRP cells (setting [2]), the “Tumor weight Mean ± S.D.” value amounted to 0.79 ± 0.14 g and the “Tumor growth inhibition ratio IR” value amounted to 37.7%. In the experiment with HCT116/BCRP cells (setting [3]), the “Tumor weight Mean ± S.D.” value is on record as 0.70 ± 0.10 g and the “Tumor growth inhibition ratio IR” value was 45.1%.

For `COc1ccc(/C(C#N)=C/c2ccc(-c3cccc([N+](=O)[O-])c3)o2)cc1OC` [Compound 21, (Z)-2-(3,4-dimethoxy-phenyl)-3-[5-(3-nitro-phenyl)-furan-2-yl]-acrylonitrile], the EC50 is 0.02 µg/mL (≈ 0.0531 µM) in the experiment with A549/SN-38-4 cells and > 5 µg/mL with K562/MDR cells (setting [1]). The “Effect … of the P388/BCRP cells” value with P388/BCRP cells is “potent effect of overcoming the SN-38 resistance”. For the same molecule, in the experiment with P388 cells, the “Effect on sensitivity” value was “did not affect the sensitivity”.

Take `COc1ccc(/C(C#N)=C/c2ccc(-c3cccc(N)c3)o2)cc1OC` [Compound 23, (Z)-3-[5-(3-amino-phenyl)-furan-2-yl]-2-(3,4-dimethoxy-phenyl)-acrylonitrile hydrochloride]: the “Effect of overcoming resistance EC50” value in the experiment on A549/SN-38-4 cells was determined as 0.058 µg/mL. In addition, the “Tumor weight Mean ± S.D.” value in the experiment with HCT116/BCRP cells (setting [2]) amounted to 1.21 ± 0.17 g; in the experiment with HCT116/BCRP cells (setting [3]) it was 0.71 ± 0.11 g. Besides, the “Tumor growth inhibition ratio IR” value came to 12.3% with HCT116/BCRP cells (setting [2]) and 48.8% with HCT116/BCRP cells (setting [3]).

For the molecule `COc1ccc(/C(C#N)=C/c2ccncc2)cc1OC` [Compound 31, (Z)-2-(3,4-dimethoxy-phenyl)-3-pyridin-4-yl-acrylonitrile hydrochloride], in the experiment with A549/SN-38-4 cells, the “Effect of overcoming resistance EC50” value came to 0.037 µg/mL. Moreover, in the experiment with HCT116/BCRP cells (setting [2]), the “Tumor weight Mean ± S.D.” value worked out at 0.74 ± 0.06 g and the “Tumor growth inhibition ratio IR” value amounted to 46.6%. In addition, in the experiment with HCT116/BCRP cells (setting [3]), the “Tumor weight Mean ± S.D.” value stood at 0.67 ± 0.18 g and the “Tumor growth inhibition ratio IR” value is 51.1%.

Turning to `COc1ccc(/C(C#N)=C/c2ccncc2)cc1OC.CS(=O)(=O)O` [Compound 32, (Z)-2-(3,4-dimethoxy-phenyl)-3-pyridin-4-yl-acrylonitrile methanesulfonate], the 50% effective concentration (EC50) in the experiment on A549/SN-38-4 cells was 0.028 µg/mL; with K562/MDR cells (setting [1]), > 5 µg/mL. The entries for the “Tumor weight Mean ± S.D.” value in the experiment with HCT116/BCRP cells (setting [4]) and in the experiment on HCT116/BCRP cells (setting [2]) were 0.75 ± 0.24 g and 0.52 ± 0.11 g, respectively. The “Tumor growth inhibition ratio IR” value amounted to 40.8% with HCT116/BCRP cells (setting [4]) and 59.0% with HCT116/BCRP cells (setting [2]).

As for `COc1ccc(/C(C#N)=C/c2ccc[nH]2)cc1OC` [Compound 39, (Z)-2-(3,4-dimethoxy-phenyl)-3-(1H-pyrrol-2-yl)-acrylonitrile], the EC50 in the experiment with A549/SN-38-4 cells is 0.037 µg/mL (≈ 0.146 µM); with K562/MDR cells (setting [1]) it was > 5 µg/mL. In the experiment on P388/BCRP cells, the “Effect … of the P388/BCRP cells” value was “potent effect of overcoming the SN-38 resistance”. For the same molecule, the “Effect on sensitivity” value in the experiment with P388 cells is on record as “did not affect the sensitivity”. Besides, the “Amount of accumulation of SN-38 in the K562/BCRP cells” value in the experiment on K562/BCRP cells was “increased the amount of accumulation of SN-38”. Also, the “Amount of accumulation of SN-38 in the K562 cells (parental cells)” value in the experiment on K562 cells was “virtually unaffected”.

Turning to `COc1ccc(/C(C#N)=C/c2cnc[nH]2)cc1OC` [Compound 41, (Z)-2-(3,4-dimethoxy-phenyl)-3-(3H-imidazol-4-yl)-acrylonitrile], the EC50 was 0.28 µg/mL (≈ 1.1 µM) in the experiment on A549/SN-38-4 cells and > 5 µg/mL in the experiment on K562/MDR cells (setting [1]). Besides, the “Effect … of the P388/BCRP cells” value with P388/BCRP cells is listed as “potent effect of overcoming the SN-38 resistance”. Besides, the “Effect on sensitivity” value in the experiment on P388 cells is on record as “did not affect the sensitivity”.

For the molecule `COc1ccc(/C=C(\C#N)c2cccnc2)cc1OC` [Compound 46, (Z)-3-(3,4-dimethoxy-phenyl)-2-pyridin-3-yl-acrylonitrile hydrochloride], the “Effect of overcoming resistance EC50” value in the experiment on A549/SN-38-4 cells amounted to 0.1 µg/mL. Also, the “Tumor weight Mean ± S.D.” value in the experiment with HCT116/BCRP cells (setting [2]) was 0.79 ± 0.21 g; in the experiment on HCT116/BCRP cells (setting [3]), 0.67 ± 0.07 g. Also, the “Tumor growth inhibition ratio IR” value is on record as 37.7% with HCT116/BCRP cells (setting [2]) and 47.7% in the experiment with HCT116/BCRP cells (setting [3]).
